Data from patent US7511041B2, “Fused azole-pyrimidine derivatives” (Bayer Pharmaceuticals Corporation, priority 2002, dated 2009).
Like-named read-outs stand apart in the source and are kept apart here.

Legend:
[1] = molecular target: T1, Recombinant human PI3Kγ (full length human PI3K p110γ) (Homo sapiens, UniProt P48736); assay: Kinase assay of PI3Kγ (solid-phase lipid kinase assay); type: biochemical
T1 construct: full length human PI3K p110γ fused with a His6-tag at the C-terminus; His6 (C); purchased ALEXIS BIOCHEMICALS #201-055-C010; host or cells: S. frugiperda 9 insect cells
T1 sequence (P48736 whole entry, the tested form may be a part): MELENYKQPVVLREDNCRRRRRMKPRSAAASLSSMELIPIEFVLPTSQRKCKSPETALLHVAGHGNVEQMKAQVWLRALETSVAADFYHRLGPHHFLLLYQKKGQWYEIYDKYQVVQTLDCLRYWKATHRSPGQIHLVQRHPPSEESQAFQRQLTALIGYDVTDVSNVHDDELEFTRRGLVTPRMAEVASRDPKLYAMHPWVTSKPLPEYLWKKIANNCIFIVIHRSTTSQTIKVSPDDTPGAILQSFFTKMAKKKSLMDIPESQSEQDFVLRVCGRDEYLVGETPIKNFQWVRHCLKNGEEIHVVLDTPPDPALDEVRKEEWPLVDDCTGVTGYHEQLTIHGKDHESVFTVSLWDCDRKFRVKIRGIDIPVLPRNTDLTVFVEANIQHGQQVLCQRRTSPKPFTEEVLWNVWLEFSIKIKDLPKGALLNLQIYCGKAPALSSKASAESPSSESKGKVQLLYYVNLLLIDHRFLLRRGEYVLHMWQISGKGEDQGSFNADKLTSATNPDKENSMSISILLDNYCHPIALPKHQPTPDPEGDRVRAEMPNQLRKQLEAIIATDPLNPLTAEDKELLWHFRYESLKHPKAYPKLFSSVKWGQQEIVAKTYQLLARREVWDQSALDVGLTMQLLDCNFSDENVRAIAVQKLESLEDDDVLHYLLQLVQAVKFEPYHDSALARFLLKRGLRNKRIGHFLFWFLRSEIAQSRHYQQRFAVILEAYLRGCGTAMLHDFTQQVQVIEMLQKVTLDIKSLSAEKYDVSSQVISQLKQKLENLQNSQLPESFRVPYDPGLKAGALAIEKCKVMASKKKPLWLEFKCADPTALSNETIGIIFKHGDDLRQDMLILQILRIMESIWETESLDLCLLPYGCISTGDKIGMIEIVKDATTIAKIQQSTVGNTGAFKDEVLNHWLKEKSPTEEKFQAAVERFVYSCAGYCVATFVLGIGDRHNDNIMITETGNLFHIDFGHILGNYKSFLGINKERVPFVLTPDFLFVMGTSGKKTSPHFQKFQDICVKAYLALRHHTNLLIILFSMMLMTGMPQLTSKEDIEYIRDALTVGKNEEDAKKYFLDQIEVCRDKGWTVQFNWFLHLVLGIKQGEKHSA

[2] = Table 1, isozyme not given, read-out: in vitro
[3] = in vitro PI3K-γ inhibitory activity, class symbols, read-out: in vitro PI3K-gamma

| SMILES | melting point | IC50 [1, 2] | IC50 [1, 3] |
| --- | --- | --- | --- |
| COc1cc2c(cc1OC)C1=NCCN1C(/C=C(\O)c1cccc(Cl)c1)=N2 [Example 1-186] | 257 to 259 °C | > 2000 nM |  |
| COc1cc2c(cc1OC)C1=NCCN1C(/C=C(\O)c1ccc(C#N)cc1)=N2 [Example 1-187] | 307 to 308 °C | > 2000 nM |  |
| O/C(=C\C1=Nc2ccc(Cl)cc2C2=NCCN12)c1cccnc1 [Example 1-189] | 260 °C | 500 to 2000 nM |  |
| O/C(=C\C1=Nc2cc(Cl)ccc2C2=NCCN12)c1ccccc1 [Example 1-190] | 186 to 188 °C | 500 to 2000 nM |  |
| O=[N+]([O-])c1ccc2c(c1)C1=NCCN1C(/C=C(\O)c1ccccc1)=N2 [Example 1-191] | 259 to 262 °C | > 2000 nM |  |
| O=[N+]([O-])c1ccc2c(c1)C1=NCCN1C(/C=C(\O)c1cccnc1)=N2 [Example 1-192] | 306 °C | 500 to 2000 nM |  |
| CCC(C(=O)c1ccccc1)C1=Nc2ccccc2C2=NCCN21 (stereo not drawn) [Example 1-193] | 156 to 160 °C | > 2000 nM |  |
| COc1c(OCC2CCCCO2)ccc2c1N=C(/C=C(\O)c1cccnc1)N1CCN=C21 (stereo not drawn) [Example 1-194] | 233 to 234 °C | < 100 nM |  |
| COc1c(OCC#N)ccc2c1N=C(/C=C(\O)c1cccnc1)N1CCN=C21 [Example 1-195] | 284 to 285 °C | < 100 nM |  |
| COc1c(OCc2nn[nH]n2)ccc2c1N=C(/C=C(\O)c1cccnc1)N1CCN=C21 [Example 1-196] | 229 to 231 °C | < 100 nM |  |
| COc1c(OCCCC(=O)N2CCOCC2)ccc2c1N=C(/C=C(\O)c1cccnc1)N1CCN=C21.Cl [Example 1-198] | 215 to 216 °C | < 100 nM |  |
| COC(=O)CCCOc1c(OC)ccc2c1N=C(/C=C(\O)c1cccnc1)N1CCN=C21.Cl [Example 1-199] | 178 to 179 °C | < 100 nM |  |
| COc1ccc2c(c1OCC(=O)O)N=C(/C=C(\O)c1cccnc1)N1CCN=C21.Cl [Example 1-200] | 286 °C (dec.) | 100 to 500 nM |  |
| Cl.O=C(O)CCc1ccc2c(c1)N=C(/C=C(\O)c1cccnc1)N1CCN=C21 [Example 1-201] | 273 °C (dec.) | < 100 nM |  |
| Cl.O=C(O)CCCc1ccc2c(n1)N=C(/C=C(\O)c1cccnc1)N1CCN=C21 [Example 1-202] | 285 °C (dec.) | 100 to 500 nM |  |
| CN(C)C(=O)NCCc1ccc2c(n1)N=C(/C=C(\O)c1cccnc1)N1CCN=C21 [Example 1-203] | 228 °C | 100 to 500 nM |  |
| O=C(NCCc1ccc2c(n1)N=C(/C=C(\O)c1cccnc1)N1CCN=C21)N1CCOCC1 [Example 1-204] | 262 °C | 500 to 2000 nM |  |
| O=C(NCCc1ccc2c(n1)N=C(/C=C(\O)c1cccnc1)N1CCN=C21)N1CCCCC1 [Example 1-205] | 246 °C | 100 to 500 nM |  |
| Cl.O=C(O)CCCCc1ccc2c(n1)N=C(/C=C(\O)c1cccnc1)N1CCN=C21 [Example 1-206] | 267 °C | < 100 nM |  |
| CC(=O)Nc1ccc(/C(O)=C/C2=Nc3c(CN4CCOCC4)cccc3C3=NCCN23)cn1 [Example 1-208] | 253 °C (dec.) | 100 to 500 nM |  |
| Cl.O/C(=C\C1=Nc2cc(N3CCCC(O)C3)ccc2C2=NCCN12)c1ccc2[nH]cnc2c1 (stereo not drawn) [Example 1-210] | > 300 °C | < 100 nM |  |

| SMILES | melting point | IC50 [1, 2] | IC50 [1, 3] |
| --- | --- | --- | --- |
| O=C(NC1=Nc2cc(N3CCOCC3)ccc2C2=NCCN12)c1cccnc1 [Example 2-7] | 243 °C |  | 100 to 500 nM |
| Cl.O=C(NC1=Nc2cc(N3CCOCC3)ccc2C2=NCCN12)c1cccnc1 [Example 2-8] | 283 °C |  | < 100 nM |
| CC(=O)Nc1ccc(C(=O)NC2=Nc3cc(N4CCOCC4)ccc3C3=NCCN23)cc1.Cl [Example 2-9] | 249 °C |  | 100 to 500 nM |
| O=C(NC1=Nc2cc(N3CCOCC3)ccc2C2=NCCN12)c1ccc2[nH]cnc2c1 [Example 2-10] | 250 °C (dec.) |  | 100 to 500 nM |
| Cl.O=C(NC1=Nc2cc(N3CCOCC3)ccc2C2=NCCN12)c1ccc2[nH]cnc2c1 [Example 2-11] | 294 °C (dec.) |  | < 100 nM |
| Cc1ncccc1C(=O)NC1=Nc2cc(N3CCOCC3)ccc2C2=NCCN12 [Example 2-12] | 199 °C (dec.) |  | 100 to 500 nM |
| Cc1ccc(C(=O)NC2=Nc3cc(N4CCOCC4)ccc3C3=NCCN23)cn1 [Example 2-13] | 209 °C |  | < 100 nM |
| Cc1nc(C)c(C(=O)NC2=Nc3cc(N4CCOCC4)ccc3C3=NCCN23)s1 [Example 2-16] | 233 °C (dec.) |  | 100 to 500 nM |
| Cc1nc(C)c(C(=O)NC2=Nc3cc(N4CCOCC4)ccc3C3=NCCN23)s1.Cl [Example 2-17] | 255 °C (dec.) |  | < 100 nM |
| CCn1nc(C)cc1C(=O)NC1=Nc2cc(N3CCOCC3)ccc2C2=NCCN12 [Example 2-18] | 232 °C |  | 100 to 500 nM |
| COc1ccc2c(c1)N=C(NC(=O)c1cccnc1)N1CCN=C21 [Example 2-20] | 281 °C (dec.) |  | 100 to 500 nM |
| COc1ccc2c(c1)N=C(NC(=O)c1ccc(NC(C)=O)nc1)N1CCN=C21.Cl [Example 2-22] | 198 to 205 °C (dec.) |  | 100 to 500 nM |
| COc1ccc2c(c1)N=C(NC(=O)c1ccc(N)nc1)N1CCN=C21 [Example 2-23] | 279 to 282 °C |  | < 100 nM |
| COc1ccc2c(c1)N=C(NC(=O)c1ccc3[nH]cnc3c1)N1CCN=C21 [Example 2-25] | 186 °C |  | < 100 nM |
| Cc1ccc2c(c1)N=C(NC(=O)c1cccnc1)N1CCN=C21 [Example 2-27] | 207 °C |  | < 100 nM |
| Cc1ccc2c(c1)N=C(NC(=O)c1ccc3[nH]cnc3c1)N1CCN=C21 [Example 2-29] | 190 °C |  | < 100 nM |
| Cc1ccc2c(c1)N=C(NC(=O)c1ccc3[nH]cnc3c1)N1CCN=C21.Cl [Example 2-30] | 295 °C |  | 100 to 500 nM |
| Cc1ccc2c(c1)N=C(NC(=O)c1cccs1)N1CCN=C21 [Example 2-31] | 182 °C |  | 100 to 500 nM |
| O=C(NC1=Nc2cc(C(F)(F)F)ccc2C2=NCCN12)c1cccnc1 [Example 2-33] | 229 °C |  | 100 to 500 nM |
| Cl.O=C(NC1=Nc2cc(C(F)(F)F)ccc2C2=NCCN12)c1cccnc1 [Example 2-34] | 275 °C |  | < 100 nM |
| Cl.O=C(NC1=Nc2cc(C(F)(F)F)ccc2C2=NCCN12)c1cncc(O)c1 [Example 2-35] | 237 °C (dec.) |  | < 100 nM |

| SMILES | melting point | IC50 [1, 2] | IC50 [1, 3] |
| --- | --- | --- | --- |
| O=C(NC1=Nc2cc(C(F)(F)F)ccc2C2=NCCN12)c1ccc2[nH]cnc2c1 [Example 2-36] | > 300 °C |  | 100 to 500 nM |
| Cl.O=C(NC1=Nc2cc(C(F)(F)F)ccc2C2=NCCN12)c1ccc2[nH]cnc2c1 [Example 2-37] | 288 °C |  | < 100 nM |
| Cl.O=C(NC1=Nc2cc(Cl)ccc2C2=NCCN12)c1cccnc1 [Example 2-38] | 308 °C |  | 100 to 500 nM |
| O=C(NC1=Nc2cc(Cl)ccc2C2=NCCN12)c1ccc2[nH]cnc2c1 [Example 2-39] | 288 °C |  | < 100 nM |
| Cl.O=C(NC1=Nc2cc(Cl)ccc2C2=NCCN12)c1cccs1 [Example 2-41] | 328 °C |  | 100 to 500 nM |
| Cl.O=C(NC1=Nc2cc(Br)ccc2C2=NCCN12)c1cccnc1 [Example 2-42] | 243 °C |  | < 100 nM |
| Cc1ncccc1C(=O)NC1=Nc2cc(Br)ccc2C2=NCCN12.Cl [Example 2-43] | 252 °C (dec.) |  | 100 to 500 nM |
| O=C(NC1=Nc2cc(Br)ccc2C2=NCCN12)c1ccc2[nH]cnc2c1 [Example 2-44] | 262 °C |  | 100 to 500 nM |
| Cl.O=C(NC1=Nc2cc(Br)ccc2C2=NCCN12)c1ccc2[nH]cnc2c1 [Example 2-45] | 278 °C |  | < 100 nM |
| COc1ccc2c(c1OC)N=C(NC(=O)c1ccc(NC(C)=O)nc1)N1CCN=C21 [Example 2-48] | 306 to 307 °C |  | < 100 nM |
| COc1ccc2c(c1OC)N=C(NC(=O)c1ccc3[nH]cnc3c1)N1CCN=C21 [Example 2-49] | 289 °C (dec.) |  | < 100 nM |
| COc1ccc2c(c1OC)N=C(NC(=O)c1cnc3[nH]cnc3c1)N1CCN=C21 [Example 2-51] | 233 °C (dec.) |  | < 100 nM |
| COc1cc2c(cc1OC)C1=NCCN1C(NC(=O)c1cncc(O)c1)=N2 [Example 2-54] | 287 °C (dec.) |  | < 100 nM |
| COc1cc2c(cc1OC)C1=NCCN1C(NC(=O)c1ccc(N)nc1)=N2.Cl [Example 2-56] | 256 °C |  | 100 to 500 nM |
| COc1cc2c(cc1OC)C1=NCCN1C(NC(=O)c1ccc(NC(C)=O)nc1)=N2 [Example 2-57] | 224 °C |  | 100 to 500 nM |
| COc1cc2c(cc1OC)C1=NCCN1C(NC(=O)c1cncc(C)c1)=N2.Cl [Example 2-59] | 257 °C (dec.) |  | 100 to 500 nM |
| COc1cc2c(cc1OC)C1=NCCN1C(NC(=O)c1ccc3[nH]cnc3c1)=N2 [Example 2-60] | 246 °C |  | < 100 nM |
| COc1cc2c(cc1OC)C1=NCCN1C(NC(=O)c1cccs1)=N2 [Example 2-62] | 248 °C |  | 100 to 500 nM |
| COc1cc2c(cc1OC)C1=NCCN1C(NC(=O)c1cn[nH]c1)=N2.Cl [Example 2-63] | 270 °C (dec.) |  | 100 to 500 nM |
| COc1cc2c(cc1OC)C1=NCCN1C(NC(=O)c1cc(C)nn1C)=N2 [Example 2-64] | 236 to 237 °C |  | 100 to 500 nM |
| COc1ccc2c(c1Br)N=C(NC(=O)c1cccnc1)N1CCN=C21 [Example 2-65] | 264 °C |  | < 100 nM |
